Counter-ions that a name gives are not always drawn. Like-named read-outs stand apart in the source and are kept apart here.
Target: T1, BCRP (Homo sapiens, UniProt Q9UNQ0)
T1 sequence (Q9UNQ0 1-655): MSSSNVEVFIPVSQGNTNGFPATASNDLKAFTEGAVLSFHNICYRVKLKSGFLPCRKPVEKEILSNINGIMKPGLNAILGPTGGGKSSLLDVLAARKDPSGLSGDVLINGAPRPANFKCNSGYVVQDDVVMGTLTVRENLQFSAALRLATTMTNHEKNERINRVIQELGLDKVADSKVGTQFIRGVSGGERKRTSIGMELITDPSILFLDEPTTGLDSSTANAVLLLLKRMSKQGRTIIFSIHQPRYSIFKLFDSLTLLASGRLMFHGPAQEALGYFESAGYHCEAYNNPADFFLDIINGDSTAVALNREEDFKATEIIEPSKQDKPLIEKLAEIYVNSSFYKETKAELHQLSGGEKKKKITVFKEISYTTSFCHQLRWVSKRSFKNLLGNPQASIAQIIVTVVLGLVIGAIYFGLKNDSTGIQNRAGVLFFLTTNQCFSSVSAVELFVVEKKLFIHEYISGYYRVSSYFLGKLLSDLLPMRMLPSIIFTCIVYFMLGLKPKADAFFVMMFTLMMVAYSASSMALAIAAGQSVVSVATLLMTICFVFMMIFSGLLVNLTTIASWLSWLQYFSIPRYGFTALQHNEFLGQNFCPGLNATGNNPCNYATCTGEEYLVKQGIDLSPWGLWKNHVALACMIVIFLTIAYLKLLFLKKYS
Test: Membrane vesicle transport inhibition assay: BCRP-mediated [3H]-E1S uptake
Conditions: for Decrease of BCRP-mediated transport compared to control: toxin 1 mM; for Mode of inhibition of BCRP-mediated transport: Dixon plot, three [3H]-E1S concentrations; for IC50: IC50, [3H]-E1S uptake into BCRP membrane vesicles, 1 min, 37°C, mean ± SEM of three experiments; for IC20 at 1 min: human, membrane vesicles from HEK293 cells overexpressing BCRP, pH 7, probe [3H]-estrone sulfate ([3H]-E1S)
Procedure: Human embryonic kidney (HEK293; purchased at American Type Culture Collection, Manassas, VA) cells were cultured in Dulbecco's modified Eagle's medium (Invitrogen life sciences, Breda, the Netherlands) containing 10% (v/v) fetal calf serum (MP Biomedicals, Uden, the Netherlands) at 37°C in a 5% (v/v) CO2 atmosphere. To functionally overexpress MRP4 and BCRP, HEK293 cells were transduced with baculoviruses of human MRP4, BCRP or enhanced yellow fluorescent protein (EYFP), generated via the Bac-to-Bac system (Invitrogen) as previously described. To transduce HEK293 cells, they were cultured in 500 cm^2 flasks until 70% confluence. Subsequently, medium was removed and 10 ml of virus and 25 ml of medium were added and incubated for 30 min at 37°C. Next, 50 ml of medium was added and after 2 h of transduction 5 mM sodium butyrate was added.
Three days after transduction, cells were harvested and pelleted by centrifugation (30 min at 4,000 x g). Afterwards, the cells were resuspended in ice-cold hypotonic TS buffer (0.5 mM sodium phosphate, 0.1 mM EDTA, pH 7.0) containing protease inhibitors (100 µM phenylmethylsulfonyl fluoride, 5 µg/ml aprotinin, 5 µg/ml leupeptin, 1 µg/ml pepstatin and 1 µg/ml E-64) and shaken for 30 min at 4°C. Cells were then centrifuged at 100,000 x g for 30 min at 4°C. Subsequently, pellet was resuspended in ice-cold isotonic buffer (10 mM Tris-HEPES and 250 mM sucrose, pH 7.4, adjusted with HEPES) supplemented with protease inhibitors and homogenized using a tight fitting Dounce homogenizer followed by centrifugation (1,000 x g, 20 min, 4°C). Afterwards, supernatant was centrifuged at 100,000 x g for 1 h at 4°C. The resulting pellet was resuspended in isotonic buffer and passed through a 27-gauge needle 25 times to obtain crude membrane vesicles. The protein content of samples was determined using the Bio-Rad protein assay (Veenendaal, the Netherlands), according to manufacturers recommendations. Vesicles were frozen in liquid nitrogen and stored at −80°C until use. The orientation of the membrane vesicles was not determined, since ATP-dependent uptake occurs only in inside-out vesicles.
A rapid filtration technique was used to study the uptake of [^3H]-MTX and [^3H]-E1S into MRP4 or BCRP membrane vesicles, as previously described. In short, 25 µl of TS buffer containing 4 mM ATP, 10 mM MgCl2 and radiolabeled substrate was added to 5 µl of the membrane vesicles (1.5 mg/ml). The transport assay was performed in the absence or presence of various concentrations of uremic toxins to evaluate the inhibitory effects of these compounds on MRP4-mediated [^3H]-MTX uptake and BCRP-mediated [^3H]-E1S uptake. […] Uptake was stopped by placing the samples on ice and the addition of 150 µl ice cold TS buffer. Subsequently, the samples were transferred to a 96 well filter plate (Millipore, Etten-leur, the Netherlands) pre-incubated with TS buffer and filtered using a Multiscreen HTS-Vacuum Manifold filtration device (Millipore). Afterwards, 2 ml of scintillation liquid was added to each filter and radioactivity was determined using liquid scintillation counting. As negative controls ATP was substituted for AMP and EYFP-membrane vesicles were used. Each experiment was performed in triplicates.
Statistics were performed using GraphPad Prism 5.02 via an unpaired t test or a Kruskal-Wallis test followed by a Dunn's Multiple Comparison test. Differences between groups were considered to be statistically significant when p<0.05. The mean IC50 and IC20 values were calculated from the inhibition curves used for the Dixon analysis and to determine the inhibition constant (Ki) from the Dixon plots. Transport inhibition studies were performed in triplicate and repeated at least three times.

[1] = [3H]-E1S uptake, result in words

Compound: O=C(O)Cc1c[nH]c2ccccc12 [indole-3-acetic acid]
- Effect on transport mediated by BCRP [1]: only reduced [^3H]-MTX uptake by MRP4

Compound: O=C(O)Cc1ccccc1 [phenylacetic acid]
- Effect on transport mediated by BCRP [1]: only reduced [^3H]-MTX uptake by MRP4

Compound: O=C(O)c1cccnc1C(=O)O [quinolinic acid]
- Effect on transport mediated by BCRP [1]: did not alter transport
- Decrease of BCRP-mediated transport compared to control ([3H]-E1S uptake): ≤ 10%

Compound: O=S(=O)(O)Oc1c[nH]c2ccccc12 [indoxyl sulfate]
- Ki: 500 µM
- Mode of inhibition of BCRP-mediated transport: non-competitive
- IC50: 770 ± 120 µM
- IC20 at 1 min: 390 ± 30 µM

Compound: O=C(O)CNC(=O)c1ccccc1 [hippuric acid]
- Ki: 4000 ± 100 µM
- Extent of inhibition of [3H]-E1S uptake by BCRP (0.1 mM to 3.5 mM, result in words): completely blocked
- Mode of inhibition of BCRP-mediated transport: non-competitive
- IC50: 3670 ± 170 µM
- IC20 at 1 min: 690 ± 70 µM

Compound: Cc1ccc(O)cc1 [p-cresol]
- Effect on transport mediated by BCRP: did not alter transport
- Decrease of BCRP-mediated transport compared to control ([3H]-E1S uptake): ≤ 10%

Compound: O=C(O)C(=O)O [oxalate]
- Effect on transport mediated by BCRP [1]: did not alter transport
- Decrease of BCRP-mediated transport compared to control ([3H]-E1S uptake): ≤ 10%

Compound: Cc1ccc(S(=O)(=O)O)cc1 [p-toluenesulfonic acid, reference compound]
- Effect on transport mediated by BCRP [1]: did not alter transport
- Decrease of BCRP-mediated transport compared to control ([3H]-E1S uptake): ≤ 10%

Compound: O=C(O)c1cc(=O)c2ccccc2[nH]1 [kynurenic acid]
- Ki: 50 µM
- IC50: 40 ± 1 µM
- IC20 at 1 min: 10 ± 1 µM

Compound: NCCCCN [putrescine]
- Effect on transport mediated by BCRP [1]: did not alter transport
- Decrease of BCRP-mediated transport compared to control ([3H]-E1S uptake): ≤ 10%

— article PMC3070735, “Uremic Toxins Inhibit Transport by Breast Cancer Resistance Protein and Multidrug Resistance Protein 4 at Clinically Relevant Concentrations” (PLoS ONE, 2011)
